# Measurements from patent publication US9340505B2, “Type III secretion inhibitors, analogs and uses thereof” (priority 2007, dated 2016).
# “Also recorded” adds a separate entry of the source. Like-named read-outs stand apart in the source and are kept apart here.
# How the values were obtained:
# bacterial T3S = details: cited from earlier work
# [1] = test system: T3S mediated cytotoxic response of HeLa cells infected by Y. pestis
# YopE-B1a secretion = experiment: microbe, parasite or virus in culture; type: cell-based, Y. pestis; details: for IC50 / inhibition at 60 µM: Yersinia pestis
# HeLa cells = experiment: Cytotoxicity of compounds, Lactate Dehydrogenase (LDH) assay; details: 60 μM
# YopH secretion = type: cell-based, Y. pestis
# [2] = test system: YopE-B1a translocation to HeLa cells; experiment: cells; type: cell-based, Y. pestis
# Y. pestis = type: cell-based
# Y. pestis JG401 = type: cell-based
# T3S = details: read-out: IC50 as T3S inhibitor in Y. pseudotuberculosis; cited from earlier work
# secretion of Yops = type: cell-based, Y. pestis
# [3] = read-out: IC50 (μM) of YopE secretion, round 3 lead 1 analogs
# [4] = read-out: IC50 of YopE secretion (Table 13)
# [5] = read-out: Mean Inhibition (%) (3rd round compound 3 analogs)
structure (smiles),measurement,setting,value
CCCCCCCCC[C@H](CCCCCCCC(C)=O)O[C@@H]1O[C@H](CO)[C@@H](O)[C@H](O)[C@H]1O[C@@H]1O[C@H](CO[C@@H]2O[C@H](C)[C@H](O)[C@H](O)[C@@H]2O)[C@@H](OC(C)=O)[C@H](OC(=O)CCC)[C@H]1O[C@@H]1O[C@@H](C)[C@H](O)[C@@H](O)[C@@H]1O [Caminoside A],activity in screen for bacterial T3S inhibitors,bacterial T3S,potent activity
"Cl.O=C(Nc1cccc(Cl)c1)Nc1cccc(C2=NCCN2)c1 [Compound 1, 1-(3-chlorophenyl)-3-(3-(4,5-dihydro-1H-imidazol-2-yl)phenyl) urea hydrochloride]",inhibition of T3S mediated cytotoxic response (morphological change),[1],inhibited the cytotoxic response
"Cc1ccc(CSc2nc(C(=O)O)ccc2C#N)cc1 [Compound 1, 2-Pyridinecarboxylic acid, 5-cyano-6-[[(4-methylphenyl)methyl]thio]-]",IC50,YopE-B1a secretion; [3],< 15 µM
same,IC50,YopE-B1a secretion; [4],> 60 µM
Oc1ccc(Oc2ccc(O)cc2)cc1 [Compound 2-3],cytotoxicity of analogs to HeLa cells (in words),HeLa cells,significant decrease in cytotoxicity; also recorded: overcame the cytotoxicity
same,activity against YopH secretion (in words),YopH secretion,showed activity
same,concentration dependent T3S inhibition (in words),YopH secretion,retained inhibitory activity
Nc1cc(Oc2ccc(O)c(N)c2)ccc1O [Compound 2-4],cytotoxicity of analogs to HeLa cells (in words),HeLa cells,significant decrease in cytotoxicity
"CCC(=O)O.CCC(=O)O.O=C(Nc1cccc(C2=NCCN2)c1)Nc1cccc(C2=NCCN2)c1 [Compound 3 dipropionate, propanoic acid, compd. with N,N′-bis[3-(4,5-dihydro-1H-imidazol-2-yl)phenyl]urea (2:1)]",inhibition of YopE-B1a translocation (in words),[2]; 80 μM,completely inhibited
same,inhibition at 40 µM,"[2]; Yersinia pestis, HeLa, 40 μM",50%
Cl.N#Cc1cccc(NC(=O)Nc2cccc(C3=NCCN3)c2)c1 [Compound 3],inhibition of T3S mediated cytotoxic response (morphological change),[1],inhibited the cytotoxic response
"CC(=O)c1ccc(NC(=O)Nc2cccc(C3=NCCN3)c2)cc1.Cl [Compound 4, 1-(4-acetylphenyl)-3-(3-(4,5-dihydro-1H-imidazol-2-yl)phenyl)urea hydrochloride]",inhibition of T3S mediated cytotoxic response (morphological change),[1],inhibited the cytotoxic response
Cc1ccc(-c2nn(-c3ccccc3)cc2C2CC(c3cccs3)=NN2C(=O)CCC(=O)O)cc1 (centres unmarked) [Compound 4-5],activity against YopH secretion (in words),YopH secretion,showed activity
Cc1ccc(-c2nn(-c3ccccc3)cc2C2CC(c3ccccc3)=NN2C(=O)CCC(=O)O)cc1 (centres unmarked) [Compound 4-6],activity against YopH secretion (in words),YopH secretion,showed activity
O=C(N/N=C/c1cc(Br)cc(Br)c1O)c1ccc([N+](=O)[O-])cc1 [INP0007],inhibition of Y. pestis growth,Y. pestis,completely inhibited
same,promotion of Y. pestis growth at 37° C. in the absence of Ca2+,Y. pestis JG401,did not promote the growth
same,IC50,T3S,50 µM
same,inhibition of secretion of Yops (in words),secretion of Yops,inhibited secretion of Yops
"N#Cc1ccc(C(=O)O)nc1SCc1ccc(Cl)cc1 [MC1_1-1, 6-(4-chlorobenzylthio)-5-cyanopicolinic acid]",IC50,YopE-B1a secretion; [4],20 µM
"N#Cc1ccc(C(=O)O)nc1SCc1ccccc1 [MC1_1-2, 6-(benzylthio)-5-cyanopicolinic acid]",IC50,YopE-B1a secretion; [4],60 µM
"COc1ccc(CSc2nc(C(=O)O)ccc2C#N)cc1 [MC1_1-3, 5-cyano-6-(4-methoxybenzylthio) picolinic acid]",IC50,YopE-B1a secretion; [4],> 60 µM
"N#Cc1ccc(C(=O)O)nc1SCc1cccc([N+](=O)[O-])c1 [MC1_1-4, 5-cyano-6-(3-nitrobenzylthio) picolinic acid]",IC50,YopE-B1a secretion; [4],> 60 µM
"N#Cc1ccc(C(=O)O)nc1SCc1ccccc1Cl [MC1_1-5, 6-(2-chlorobenzylthio)-5-cyanopicolinic acid]",IC50,YopE-B1a secretion; [4],≥ 60 µM
N#Cc1ccc(C(=O)O)nc1SCc1ccc(C(F)(F)F)cc1 [MC1_1-8],IC50,YopE-B1a secretion; [4],55 µM
"N#Cc1ccc(C(=O)O)nc1SCc1ccc(OC(F)(F)F)cc1 [MC1_1-9, 5-cyano-6-(4-(trifluoromethoxy)benzylthio) picolinic acid]",IC50,YopE-B1a secretion; [4],30 µM
"N#Cc1ccc(C(=O)O)nc1Sc1ccc(Cl)cc1 [MC1_2-3, 6-(4-chlorophenylthio)-5-cyanopicolinic acid]",IC50,"YopE-B1a secretion; read-out: IC50 (μM) of YopE secretion, 2nd round compound 1 analogs",< 15 µM
same,inhibition at 60 µM,"YopE-B1a secretion; 60 μM, read-out: Mean Inhibition (%) of YopE-B1a secretion (Table 14)",95.9%
same,inhibition at 60 µM,"YopE-B1a secretion; 60 μM, read-out: inhibition on YopE-B1a secretion",~95%
CNC(=O)c1ccc(C#N)c(SCc2ccc(Cl)cc2)n1 [MC1_3-1],inhibitory activity on YopE-B1a secretion (in words),YopE-B1a secretion,showed inhibitory activity
same,IC50,YopE-B1a secretion; [3],< 15 µM
COC(=O)c1ccc(C#N)c(SCc2ccc(Cl)cc2)n1 [MC1_3-2],inhibitory activity on YopE-B1a secretion (in words),YopE-B1a secretion,showed inhibitory activity
same,IC50,YopE-B1a secretion; [3],20 ± 5 µM
N#Cc1ccc(C(N)=O)nc1SCc1ccc(Cl)cc1 [MC1_3-3],inhibitory activity on YopE-B1a secretion (in words),YopE-B1a secretion,showed inhibitory activity
same,IC50,YopE-B1a secretion; [3],50 ± 5 µM
O=C(Nc1cccc(C2=NCCN2)c1)Nc1cccc([N+](=O)[O-])c1 [MC3_1-2],activity against YopH secretion (in words),YopH secretion,showed inhibition
same,concentration dependent T3S inhibition (in words),YopH secretion,concentration dependent inhibitory activities
N#Cc1cccc(NC(=O)Nc2cccc(C3=NCCN3)c2)c1 [MC3_1-3],concentration dependent T3S inhibition (in words),YopH secretion,concentration dependent inhibitory activities
O=C(Nc1cccc(C2=NCCN2)c1)Nc1cccc(C(F)(F)F)c1 [MC3_1-9],concentration dependent T3S inhibition (in words),YopH secretion,concentration dependent inhibitory activities
O=C(Nc1cccc(Br)c1)Nc1cccc(C2=NCCN2)c1 [MC3_1-10],concentration dependent T3S inhibition (in words),YopH secretion,concentration dependent inhibitory activities
O=C(Nc1cccc(Cl)c1)Nc1cccc(C2=NCCN2)c1 [MC3_1-16],concentration dependent T3S inhibition (in words),YopH secretion,concentration dependent inhibitory activities
FC(F)(F)c1cc(Nc2nc3cc(C4=NCCN4)ccc3o2)ccc1Cl [MC3_3-1],inhibition at 60 µM,YopE-B1a secretion; [5],69.8%
FC(F)(F)c1cc(Nc2nc3cc(C4=NCCCN4)ccc3o2)ccc1Cl [MC3_3-2],inhibition at 60 µM,YopE-B1a secretion; [5],49%
FC(F)(F)c1cc(Nc2nc3ccc(C4=NCCN4)cc3o2)ccc1Cl [MC3_3-3],inhibition at 60 µM,YopE-B1a secretion; [5],103%
FC(F)(F)c1cc(Nc2nc3ccc(C4=NCCN4)cc3[nH]2)ccc1Cl [MC3_3-4],inhibition at 60 µM,YopE-B1a secretion; [5],0%
